From PubChem BioAssay AID651794 (The Scripps Research Institute Molecular Screening Center, 2012)
Active and inactive are the calls of the source. How the calls were made is not given here.

Tested on: cell-based VP16 transactivation counterscreen, luciferase luminescence
Assay: VP16 transactivation reporter inhibitors, late-stage follow-up, counter-screen for SRC1 inhibitor project, cell-based, luminescence, dose response (AID 651794)

Structure (SMILES)	IC50
COc1ccc(NC(=O)CN(C)C(=O)C2(c3ccccc3)CCCC2)cc1	> 35.9 µM (inactive)
COc1cc([C@@H]2c3cc4c(cc3C(OC3OC5COC(C)OC5C(O)C3O)C3COC(=O)[C@@H]32)OCO4)cc(OC)c1O (stereo partly drawn)	> 35.9 µM (inactive)
COc1ccc(Nc2ncnc3ccc(Br)cc23)c(OC)c1	36.2 µM (inactive)
